{
  "source": "patent US8785416B2",
  "about": "“Sulphated disaccharides for the treatment of neurodegenerative and/or neurovascular diseases” (Bioiberica, S.A., priority 2009, dated 2014)",
  "key": {"rat hippocampal slices": {"tested_on": "rat hippocampal slices", "assay": "Oxygen and glucose deprivation (15 minutes OGD, 2 hours reoxygenation) in hippocampal slices, MTT cell viability", "type": "cell-based", "procedure": "Male Spague Dawley strain rats (250-325 g) were used. After anaesthesia by means of an intraperitoneal injection of 60 mg/Kg sodium pentobarbital (Euta-Lender®), they were decapitated with a guillotine and the brain was extracted after a craniotomy. The brain was immediately submersed in a dissection solution, a cold (4° C.) modified Krebs-Henseleit solution at pH 7.4, the composition of which is: 120 mM NaCl, 2 mM KCl, 0.5 mM CaCl2, 26 mM NaHCO3, 10 mM MgSO4, 1.18 mM KH2PO4, 11 mM glucose and 200 mM sucrose, bubbled with 95% O2-5% CO2. The hippocampi were isolated, embedded in 2% low melting point agarose (Sigma-Aldrich), and cut into 350 μm transverse slices in a vibratome (Leica VT1000S).\nAfter the cutting in the vibratome, the slices were transferred to a vial with sucrose-free dissection Krebs solution, bubbled with 95% O2-5% CO2 for 60 minutes (equilibrium period).\nAfter the equilibrating period, the medium was removed and an oxygenated solution (normal Krebs solution (120 mM NaCl, 2 mM KCl, 2 mM CaCl2, 26 mM NaHCO3, 1.19 mM MgSO4, 1.18 mM KH2PO4 and 11 mM glucose), bubbled with 5% CO2 and 95% O2 for 30 minutes (preincubation period), was introduced. The baseline slices were maintained in this oxygenated solution throughout the entire experiment. To induce OGD, the oxygenated solution was replaced with another one which lacked glucose and was bubbled with a mixture of gases of 5% CO2 and 95% N2 (anoxic solution). The slices were in a bath at 37° C. After inducing OGD, the anoxic medium was replaced with another one which contained the oxygenated solution (reoxygenation period).\nTo evaluate the effect of the compounds, they were incubated for the 30 minutes of the preincubation and throughout the OGD and during the reoxygenation. Two OGD-reoxygenation protocols were used: (i) 1 hour of OGD and 2 hours of reoxygenation and (ii) 15 minutes of OGD followed by 2 hours of reoxygenation.\nWhen the OGD-reoxygenation protocol (ii): 15 minutes of OGD followed by 2 hours of reoxygenation was used, the slices were incubated with increasing concentrations of compound Ic (0.3 and 1 μM) or with increasing concentrations of compound Ib (1 and 3 μM). In the same study these two compounds of the invention were compared with N-acetylcysteine (NAC) at 10 mM. The baseline (slices in the absence of compound Ic or Ib and of OGD) and the control (slices in the absence of compound Ic or Ib and with OGD) were also included.\nFor the protocol of 15 minutes of OGD followed by 2 hours of reoxygenation, the cell viability was evaluated by means of the tetrazolium salt MTT, which is internalized in those cells which are viable and are therefore capable of reducing the tetrazolium to formazan which is an insoluble and coloured product which is deposited in the […]. To that end, after the experiment had ended, the hippocampal slices were incubated with MTT at a final concentration of 0.5 mg/mL in a Krebs-HEPES solution (in mM: NaCl, 144; KCl, 5.9; MgCl2, 1.2; CaCl2, 2; HEPES, 10; glucose, 11; at pH 7.3) at 37° C. After 3 hours, the medium was removed and the formazan precipitated in the solution was dissolved in dimethylsulfoxide. Then, the absorbance was measured in a plate reader (Labsystems iEMS Reader MF), at 500 nm. The data were represented taking the result of the baseline slices, i.e., those not subjected to OGD, as 100% viability."}, "[1]": {"tested_on": "SH-SY5Y human neuroblastoma cells", "assay": "Neuroprotection against cell death induced by rotenone plus oligomycin-A (oxidative stress), LDH release", "type": "cell-based", "procedure": "An oxidative stress model consists of blocking mitochondrial respiratory chain complexes I and V by means of the combination of rotenone plus oligomycin-A, respectively. As a result of the interruption of the mitochondrial respiratory chain, the cell is unable to continue producing ATP, and the free radicals are generated exceeding the capacity of the cell to neutralize them, and as a result, cell death occurs.\nSH-SY5Y human neuroblastoma cells were cultured in a monolayer in 75 cm^2 flasks with a vented stopper. The culture medium used was Dulbecco's Modified Eagle's Medium (DMEM) with a high glucose content ([…]) and supplemented with 10% foetal bovine serum, 2 mM L-Glutamine, 50 IU/mL penicillin and 50 μg/mL streptomycin.\nThe cell cultures were maintained in an incubator at 37° C. in a humid environment, with 5% CO2 and 95% air. The culture medium was changed twice a week, performing 1:4 passages when the cells reached 70-80% confluence. To perform the passages, the cells were detached by means of their treatment with trypsin-EDTA.\nFor the cell viability assays, the cells were seeded in sterile 48-well plates at a density of 80,000 cells/well. The experiments were performed 24-48 hours after their seeding.\nTo evaluate the neuroprotective effect of the compounds, the SH-SY5Y cells were preincubated for 24 hours with the compound under study, and subsequently incubated for 24 hours with the compound under study in the presence of the toxic substances (a combination of 10 μM rotenone and 1 μM oligomycin-A); at the end of this period the cell viability was evaluated by quantifying the release of the LDH enzyme.\nThe assessment of this enzyme was performed by means of a commercial kit (Cytotoxicity detection kit-LDH; Roche) following the instructions of the company. The samples were colorimetrically analyzed in a plate reader (Labsystems iEMS Reader MF), using the suitable filter at 490-600 nm and obtaining the absorbance values.\nThe % of cell death was defined as the % of LDH released into the extracellular medium with respect to the total (sum of intra- and extracellular LDH).\nCompounds Ic and Ib were studied at four concentrations (0.001, 0.003, 0.01 and 0.03 μM), chondroitin sulphate (supplied by Bioibérica, S.A.) was assayed at two concentrations (10 and 60 μM) and trolox (Sigma Aldrich) was assayed at two concentrations (30 and 300 μM). The experiment also included the baseline (SH-SY5Y cells in the absence of compound and of toxic stimulus) and the control (SH-SY5Y cells cultured in the absence of compound and in the presence of the toxic stimulus rotenone plus oligomycin)."}, "[2]": {"tested_on": "SH-SY5Y human neuroblastoma cell line", "assay": "Cell toxicity study, LDH release, SH-SY5Y cells incubated 48 hours", "type": "cell-based", "settings": "100 μM, 48 hours incubation", "procedure": "The cell toxicity studies were performed on the SH-SY5Y human neuroblastoma cell line, incubating said cells for 48 hours with the compound under study. The cell viability was assessed by quantifying the release of lactate dehydrogenase (LDH), which is a cytoplasmic enzyme which is released into the extracellular medium when the integrity of the cytoplasmic membrane is lost."}, "[3]": {"tested_on": "mice (photothrombotic stroke model)", "assay": "Experimental photothrombotic stroke model, cortical infarction volume", "type": "in vivo, mouse", "settings": "15 mg/kg i.p.", "from_the_text": "Neuronal death occurs during brain ischemia or stroke; therefore a medicament with a neuroprotective profile can have a therapeutic potential in patients who have suffered from a cerebral infarction or stroke. To explore if the compounds of formula (I) can offer neuroprotection in vivo, the experimental photothrombotic stroke model was used. In the photothrombosis model a focal cerebral infarction is induced in the area of the cortex illuminated by means of a cold light source in mice previously treated with the Rose Bengal stain; this stain is photosensitive and produces free radicals when it is stimulated with light, causing lesions in the surrounding vascular endothelium, which causes platelet aggregation and the formation of thrombi in the microvessels of the cerebral cortex (Non-invasive induction of focal cerebral ischemia in mice by photothrombosis of cortical microvessels: characterization of inflammatory responses, M. Schroeter et al., J Neurosci Methods. 117(1), 43-49. (2002); Melatonin reduces infarction volume in a photothrombotic stroke model in the wild-type but not cyclooxygenase-1-gene knockout mice, L Y. Zhou et al., J Pineal Res. 41(2), 150-156. (2006)).\nAdult male Swiss breed mice from Harlan laboratories (Barcelona), with a weight of about 30 g, were used. Once anaesthetised with isoflurane, the mice were placed in a stereotaxic frame, maintaining their rectal temperature at 37±0.5° C. during the entire procedure. Subsequently, the cranium was exposed by means of a dorsomedial incision in the skin and the periosteum was removed. By means of the use of a micromanipulator, a fibre-optic cable was placed to emit a beam of light of 1.9 mm in diameter and 3000° K, connected to a cold light source (Zeiss KL 1500), in 2.0 mm posterior and 3.0 mm lateral to Bregma on the right side. According to the mouse brain atlas (Franklin and Paxinos, 1986), the sensitive-motor cortex, the putamen caudate and the hippocampus are right below this stereotaxic position. Then, the mice were injected with 1 mg of the Rose Bengal photosensitive probe and the brain was illuminated through the intact cranium for 30 minutes. Finally, the skin was sutured and the animals were left in a cage until their recovery under observation.\nThe animals were sacrificed by decapitation 72 hours after the ischemia. […]\nTo quantify the cortical cerebral infarction volume, the sections stained with TTC were scanned on both their rostral and caudal part and by means of the image analysis programme ImageJ 1.41 (National Institutes of Health, Bethesda, Md., USA) the area of the ipsi-, contralateral cortex and the cerebral infarction of each of the sections scanned, both in the caudal and rostral part, was quantified. Subsequently, the cerebral infarction volume was calculated. […]"}},
  "data": [
    {"smiles": "CC(=O)N[C@@H](CS)C(=O)O", "note": "[N-acetylcysteine, reference compound]", "values": [
      {"measurement": "viability at 10000 µM", "setting": "rat hippocampal slices; Rattus norvegicus, 10 mM, 15 minutes OGD, 2 hours reoxygenation, baseline 100%, control 67%, read-out: maximum statistically significant protection (cell viability, MTT)", "result": 83, "unit": "%"}
    ]},
    {"smiles": "CO[C@H]1OC(COS(=O)(=O)[O-])[C@@H](O)[C@H](O[C@@H]2OC(C(=O)[O-])[C@@H](O)[C@H](O)C2O)C1NC(C)=O.[Na+].[Na+]", "note": "(stereo partly drawn) [compound Ib]", "values": [
      {"measurement": "maximum statistically significant protection against cell death (% of released LDH) induced by rotenone and oligomycin", "setting": "[1]; 0.03 μM, 24 h preincubation + 24 h with 10 μM rotenone and 1 μM oligomycin-A", "result": 40, "unit": "%"},
      {"measurement": "protective effect compared with chondroitin sulphate and trolox", "setting": "[1]; Ic, Ib at 0.001-0.03 μM vs chondroitin sulphate 10 and 60 μM, trolox 30 and 300 μM", "result": "more effective than chondroitin sulphate and than trolox"},
      {"measurement": "efficacy in comparison with N-acetylcysteine", "setting": "rat hippocampal slices; Ic 0.3 and 1 μM, Ib 1 and 3 μM vs N-acetylcysteine 10 mM", "result": "higher efficacy"},
      {"measurement": "viability at 3 µM", "setting": "rat hippocampal slices; Rattus norvegicus, 3 μM, 15 minutes OGD, 2 hours reoxygenation, baseline 100%, control 67%, read-out: maximum statistically significant protection (cell viability, MTT)", "result": 85, "unit": "%"},
      {"measurement": "cell toxicity (release of LDH)", "setting": "[2]", "result": "did not show toxicity"}
    ]},
    {"smiles": "COc1ccc2[nH]cc(CCNC(C)=O)c2c1", "note": "[melatonin, reference compound]", "values": [
      {"measurement": "cortical infarction volume", "setting": "[3]; 72 hours after ischemia, saline 6.1±2.18%, mean and standard deviation", "result": "4.3±1.63", "unit": "%"},
      {"measurement": "protection (reduction of cortical infarction volume)", "setting": "[3]; p<0.05 vs saline", "result": 29, "unit": "%"}
    ]},
    {"smiles": "Cc1c(C)c2c(c(C)c1O)CCC(C)(C(=O)O)O2", "note": "(stereo not drawn) [trolox, reference compound]", "values": [
      {"measurement": "effect on cell death induced by rotenone and oligomycin", "setting": "[1]; 30 and 300 μM", "result": "reduced cell death"}
    ]}
  ]
}
